As a reminder, the inhibition is the drop in the measured response relative to a control, in per cent.

Common to all, as to format: biochemical
Test [1] deals with T1, TrkA "Tropomyosin Related kinase A" (Homo sapiens, UniProt P04629).
T1 construct: gene NTRK1; recombinant kinase (NM_001007792.1)
Kind of test: in vitro kinase profiling (MRC Dundee), […], duplicate.

The target in test [2] is T2, GCK "Germinal central kinase" (Homo sapiens, UniProt Q12851).
T2 construct: gene MAP4K2; recombinant kinase (BC047865)
T2 sequence (Q12851 1-820): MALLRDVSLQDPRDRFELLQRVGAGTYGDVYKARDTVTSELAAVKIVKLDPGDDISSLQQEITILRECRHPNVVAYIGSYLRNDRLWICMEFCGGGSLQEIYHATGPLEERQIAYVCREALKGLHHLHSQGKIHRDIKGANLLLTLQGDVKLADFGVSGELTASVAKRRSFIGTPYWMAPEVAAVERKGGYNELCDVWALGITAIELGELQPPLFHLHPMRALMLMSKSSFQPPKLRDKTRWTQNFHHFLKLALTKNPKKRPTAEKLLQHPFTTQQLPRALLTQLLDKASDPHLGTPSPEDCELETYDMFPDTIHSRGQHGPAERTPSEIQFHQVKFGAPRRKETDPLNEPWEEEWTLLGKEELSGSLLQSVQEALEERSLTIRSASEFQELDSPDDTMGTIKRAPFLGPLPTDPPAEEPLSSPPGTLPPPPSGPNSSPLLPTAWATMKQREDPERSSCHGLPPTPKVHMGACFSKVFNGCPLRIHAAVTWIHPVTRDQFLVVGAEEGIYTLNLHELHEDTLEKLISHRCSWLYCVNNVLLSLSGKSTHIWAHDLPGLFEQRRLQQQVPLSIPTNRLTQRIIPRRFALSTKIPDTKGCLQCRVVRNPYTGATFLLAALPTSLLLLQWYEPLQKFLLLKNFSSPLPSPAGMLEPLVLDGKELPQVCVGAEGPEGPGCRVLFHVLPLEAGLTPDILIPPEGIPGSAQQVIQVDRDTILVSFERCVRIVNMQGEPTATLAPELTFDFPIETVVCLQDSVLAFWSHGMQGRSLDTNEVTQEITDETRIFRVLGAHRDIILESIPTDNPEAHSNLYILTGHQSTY
The description is as above.

Test [3] concerns the target T3, Tak1 "Transforming growth factor beta activated kinase" (Homo sapiens, UniProt O43318).
T3 construct: gene MAP3K7; recombinant kinase (NM_003188)
T3 sequence (O43318 1-606): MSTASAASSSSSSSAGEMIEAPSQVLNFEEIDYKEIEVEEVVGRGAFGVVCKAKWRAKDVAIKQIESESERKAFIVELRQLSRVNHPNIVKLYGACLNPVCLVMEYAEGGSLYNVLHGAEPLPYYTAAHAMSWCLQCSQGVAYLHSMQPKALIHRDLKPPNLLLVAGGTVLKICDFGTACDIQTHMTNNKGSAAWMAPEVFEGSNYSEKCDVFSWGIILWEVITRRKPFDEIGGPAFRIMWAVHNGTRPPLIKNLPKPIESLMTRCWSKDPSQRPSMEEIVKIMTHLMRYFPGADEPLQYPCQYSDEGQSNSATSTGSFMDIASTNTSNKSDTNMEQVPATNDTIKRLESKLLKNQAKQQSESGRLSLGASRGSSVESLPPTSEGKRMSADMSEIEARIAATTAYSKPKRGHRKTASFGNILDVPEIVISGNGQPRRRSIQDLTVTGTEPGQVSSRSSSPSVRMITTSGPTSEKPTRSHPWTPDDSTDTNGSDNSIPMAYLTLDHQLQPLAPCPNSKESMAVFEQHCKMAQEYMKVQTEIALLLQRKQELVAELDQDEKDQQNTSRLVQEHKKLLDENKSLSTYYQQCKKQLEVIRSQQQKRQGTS
The test is described as above.

For test [4], the target named is T4, NUAK1-ARK5 "SnF1-like Kinase" (Homo sapiens, UniProt O60285).
T4 construct: recombinant kinase (NM_014840)
T4 sequence (O60285 1-661): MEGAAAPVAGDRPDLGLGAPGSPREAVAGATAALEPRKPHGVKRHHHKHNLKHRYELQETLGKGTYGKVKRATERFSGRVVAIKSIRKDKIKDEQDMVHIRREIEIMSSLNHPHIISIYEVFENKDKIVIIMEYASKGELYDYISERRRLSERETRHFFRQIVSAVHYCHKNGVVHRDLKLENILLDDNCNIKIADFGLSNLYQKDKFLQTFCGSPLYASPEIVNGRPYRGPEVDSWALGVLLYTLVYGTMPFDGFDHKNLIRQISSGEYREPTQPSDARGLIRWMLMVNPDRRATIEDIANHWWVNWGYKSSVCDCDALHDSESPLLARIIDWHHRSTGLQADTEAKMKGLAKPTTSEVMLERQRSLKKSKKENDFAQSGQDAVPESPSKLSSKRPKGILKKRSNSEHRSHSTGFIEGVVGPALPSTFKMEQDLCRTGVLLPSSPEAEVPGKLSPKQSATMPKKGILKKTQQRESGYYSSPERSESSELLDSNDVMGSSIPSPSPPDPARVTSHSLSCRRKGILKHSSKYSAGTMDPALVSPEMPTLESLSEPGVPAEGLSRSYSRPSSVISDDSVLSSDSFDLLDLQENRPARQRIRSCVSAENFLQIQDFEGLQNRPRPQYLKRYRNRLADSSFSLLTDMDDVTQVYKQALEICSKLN
Described as above.

For a further test, the target named is T5, aurora kinase A (Homo sapiens, UniProt O14965).
T5 construct: gene AURKA; recombinant kinase domain
T5 sequence (O14965 133-383 limits assumed): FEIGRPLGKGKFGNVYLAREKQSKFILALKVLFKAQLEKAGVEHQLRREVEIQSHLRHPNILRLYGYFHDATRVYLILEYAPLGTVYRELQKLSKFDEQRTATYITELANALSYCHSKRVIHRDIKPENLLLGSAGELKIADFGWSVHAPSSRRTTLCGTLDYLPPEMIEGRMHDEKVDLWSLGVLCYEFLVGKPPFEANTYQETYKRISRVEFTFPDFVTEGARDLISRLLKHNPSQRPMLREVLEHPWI
Kind of test: in vitro histone H3 phosphorylation by recombinant kinase domain. The note with it: read-out: % inhibition at 1.5 μM.

T1 sequence (P04629 33-796): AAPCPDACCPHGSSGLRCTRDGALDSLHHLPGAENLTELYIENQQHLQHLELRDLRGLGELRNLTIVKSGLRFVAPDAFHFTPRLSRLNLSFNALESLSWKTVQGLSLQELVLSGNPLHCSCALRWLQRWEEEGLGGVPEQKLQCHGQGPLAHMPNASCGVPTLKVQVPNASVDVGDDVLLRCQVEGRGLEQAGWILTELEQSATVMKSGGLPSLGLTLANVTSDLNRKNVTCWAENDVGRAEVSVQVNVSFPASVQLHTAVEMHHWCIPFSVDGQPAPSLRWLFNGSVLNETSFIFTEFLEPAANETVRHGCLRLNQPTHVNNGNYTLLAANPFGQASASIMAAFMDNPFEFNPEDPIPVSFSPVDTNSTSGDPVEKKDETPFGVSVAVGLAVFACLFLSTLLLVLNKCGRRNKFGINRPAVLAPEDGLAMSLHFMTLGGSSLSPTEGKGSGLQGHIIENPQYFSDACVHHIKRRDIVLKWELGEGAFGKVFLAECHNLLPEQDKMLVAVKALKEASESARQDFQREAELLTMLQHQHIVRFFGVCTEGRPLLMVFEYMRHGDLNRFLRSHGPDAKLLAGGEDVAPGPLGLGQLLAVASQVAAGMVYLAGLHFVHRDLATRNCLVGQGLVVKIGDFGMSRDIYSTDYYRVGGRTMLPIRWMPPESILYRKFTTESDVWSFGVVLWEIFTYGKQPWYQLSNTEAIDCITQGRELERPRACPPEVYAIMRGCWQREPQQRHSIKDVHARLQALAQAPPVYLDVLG

Consider `Cc1cncc2c1[nH]c1ccc3cc(OCCN(C)C)ccc3c12` [C2], for which the remaining activity at 1 µM in test [1] was 36 ± 2%; in test [2], 32 ± 1%; in test [3], 55 ± 3%; in test [4], 53 ± 2%.

As to `O=c1cc(-c2ccc(O)cc2)oc2cc(O)cc(O)c12` [apigenin], the inhibition at 1.5 µM at aurora kinase A is 33%.

As for `O=c1cc(-c2ccc(O)c(O)c2)oc2cc(O)cc(O)c12` [luteonin], the inhibition at 1.5 µM on aurora kinase A was determined as 50%.
